“And” between values parts separate entries of the source, which are not always exact repeats. Equal values may be shown once. Records with an inconclusive call do not appear.
System: BDF1 mice, s.c. Lewis lung carcinoma, T/C %
Assay: NCI In Vivo Anticancer Drug Screen. Data for tumor model Lewis Lung Carcinoma (subcutaneous) in B6D2F1 (BDF1) mice
Outline: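 First, mice carry a transplantable tumor. Next, groups receive either compound or vehicle. Finally, survival or tumor dimensions in the dosed animals are divided by the corresponding control figure.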

[1] = endpoint: median survival time, dose: 12.5 mg/kg/injection, schedule: Q01DX009 (ip), vehicle: Klucel (hydroxypropylcellulose) (HPC), higher = longer survival
[2] = endpoint: median survival time, dose: 25.0 mg/kg/injection, schedule: Q01DX009 (ip), vehicle: Klucel (hydroxypropylcellulose) (HPC), higher = longer survival

How did the T/C (endpoint: mean tumor weight, dose: 50.0 mg/kg/injection, schedule: Q01DX011 (sc), vehicle: steriod suspending solution, higher = larger tumour) turn out when COc1ccc2c(c1)CC[C@@H]1[C@@H]2CC[C@]2(C)/C(=N\O)CC[C@@H]12 was run?
Its T/C is 43 % of control.

And the T/C (endpoint: mean tumor weight, dose: 115.0 mg/kg/injection, schedule: Q01DX011 (sc), vehicle: steriod suspending solution, higher = larger tumour)?
The T/C was 53 % of control.

What about the T/C (endpoint: mean tumor weight, dose: 170.0 mg/kg/injection, schedule: Q01DX011 (sc), vehicle: steriod suspending solution, higher = larger tumour) of the same molecule?
Its T/C is 45 % of control.

And the T/C (endpoint: mean tumor weight, dose: 200.0 mg/kg/injection, schedule: Q01DX011 (sc), vehicle: steriod suspending solution, higher = larger tumour)?
The T/C was 53 % of control.

What about the T/C (endpoint: mean tumor weight, dose: 250.0 mg/kg/injection, schedule: Q01DX011 (sc), vehicle: steriod suspending solution, higher = larger tumour) of the same molecule?
The T/C was 36 % of control.

What about the T/C (endpoint: mean tumor weight, dose: 375.0 mg/kg/injection, schedule: Q01DX011 (sc), vehicle: steriod suspending solution, higher = larger tumour) of the same molecule?
Its T/C is 43 % of control.

What about the T/C (endpoint: mean tumor weight, dose: 400.0 mg/kg/injection, schedule: Q01DX011 (sc), vehicle: steriod suspending solution, higher = larger tumour) of the same molecule?
The T/C was 50 % of control.

And the T/C (endpoint: mean tumor weight, dose: 600.0 mg/kg/injection, schedule: Q01DX011 (sc), vehicle: steriod suspending solution, higher = larger tumour)?
The T/C was 24 % of control.

Which T/C (endpoint: median survival time, dose: 0.5 mg/kg/injection, schedule: Q01DX009 (ip), vehicle: saline with Tween-80, higher = longer survival) does the source give for COc1cc(C2c3cc4c(cc3CC3COC(=O)C32)OCO4)cc(OC)c1O (stereo not given) here?
Its T/C is 104 % of control.

And the T/C (endpoint: median survival time, dose: 1.0 mg/kg/injection, schedule: Q01DX009 (ip), vehicle: saline with Tween-80, higher = longer survival)?
Its T/C is 101 % of control.

And the T/C (endpoint: median survival time, dose: 2.0 mg/kg/injection, schedule: Q01DX009 (ip), vehicle: saline with Tween-80, higher = longer survival)?
Its T/C is 107 % of control.

How did the T/C (endpoint: mean tumor weight, dose: 10.0 mg/kg/injection, schedule: Q01DX011 (ip), vehicle: carboxymethylcellulose (CMC), higher = larger tumour) turn out when COc1cc(-c2ccc(Nc3ccccc3C(=O)O)c(OC)c2)ccc1N was run?
Its T/C is 86 % of control.

And the T/C (endpoint: mean tumor weight, dose: 20.0 mg/kg/injection, schedule: Q01DX011 (ip), vehicle: carboxymethylcellulose (CMC), higher = larger tumour)?
Its T/C is 72 % of control.

What about the T/C (endpoint: mean tumor weight, dose: 40.0 mg/kg/injection, schedule: Q01DX011 (ip), vehicle: carboxymethylcellulose (CMC), higher = larger tumour) of the same molecule?
Its T/C is 37 % of control.

COc1cc(NC(=O)N(CCCl)N=O)cc(OC)c1OC was tested. Which T/C (endpoint: median survival time, dose: 3.12 mg/kg/injection, schedule: Q01DX009 (ip), vehicle: other, higher = longer survival) did it give?
The T/C was 103 % of control.

And the T/C (endpoint: median survival time, dose: 6.25 mg/kg/injection, schedule: Q01DX009 (ip), vehicle: other, higher = longer survival)?
Its T/C is 102 % of control.

And the T/C (endpoint: median survival time, dose: 12.5 mg/kg/injection, schedule: Q01DX009 (ip), vehicle: other, higher = longer survival)?
The T/C was 101 % of control.

What about the T/C (endpoint: median survival time, dose: 25.0 mg/kg/injection, schedule: Q01DX009 (ip), vehicle: other, higher = longer survival) of the same molecule?
Its T/C is 94 % of control.

And the T/C (endpoint: median survival time, dose: 50.0 mg/kg/injection, schedule: Q01DX009 (ip), vehicle: other, higher = longer survival)?
The T/C was 99 % of control.

Which results are given for O=C(O)c1cc(=O)cc(C(=O)O)o1?
T/C (endpoint: mean tumor weight, dose: 25.0 mg/kg/injection, schedule: Q01DX011 (ip), vehicle: saline, higher = larger tumour): 66 % of control; T/C (endpoint: mean tumor weight, dose: 50.0 mg/kg/injection, schedule: Q01DX011 (ip), vehicle: saline, higher = larger tumour): 76 % of control; T/C (endpoint: mean tumor weight, dose: 100.0 mg/kg/injection, schedule: Q01DX011 (ip), vehicle: saline, higher = larger tumour): 77 % of control

With O=S(=O)(O)c1cc(O)ccc1O as the molecule, how does the T/C (endpoint: mean tumor weight, dose: 133.0 mg/kg/injection, schedule: Q01DX011 (ip), vehicle: saline, higher = larger tumour) read?
The T/C was 66 % of control.

What about the T/C (endpoint: mean tumor weight, dose: 300.0 mg/kg/injection, schedule: Q01DX011 (ip), vehicle: saline, higher = larger tumour) of the same molecule?
Its T/C is 99 % of control and 119 % of control.

And the T/C (endpoint: mean tumor weight, dose: 600.0 mg/kg/injection, schedule: Q01DX011 (ip), vehicle: saline, higher = larger tumour)?
Its T/C is 67 % of control.

For c1ccc([B-]2([C+]3CCCCC3)N3CCCCC3C3CCCCN32)cc1 (stereo not given), which T/C [1] is on record?
The T/C was 89 % of control.

What about the T/C [2] of the same molecule?
The T/C was 106 % of control.

Which results are given for CN(C)[C@@H]1C(=O)C(C(N)=O)=C(O)[C@]2(O)C(=O)C3C(=O)c4c(O)ccc(Cl)c4[C@](C)(O)[C@H]3C[C@@H]12 (stereo not given in full)?
T/C [1]: 117 % of control; T/C [2]: 120 % of control; T/C (endpoint: median survival time, dose: 50.0 mg/kg/injection, schedule: Q01DX009 (ip), vehicle: Klucel (hydroxypropylcellulose) (HPC), higher = longer survival): 102 % of control and 123 % of control

Which T/C (endpoint: mean tumor weight, dose: 2.5 mg/kg/injection, schedule: Q01DX011 (ip), vehicle: other, higher = larger tumour) does the source give for CCCCCCCCCCCCNCCCCCCCCCCCC here?
The T/C was 78 % of control.

What about the T/C (endpoint: mean tumor weight, dose: 5.0 mg/kg/injection, schedule: Q01DX011 (ip), vehicle: other, higher = larger tumour) of the same molecule?
Its T/C is 67 % of control.

And the T/C (endpoint: mean tumor weight, dose: 10.0 mg/kg/injection, schedule: Q01DX011 (ip), vehicle: other, higher = larger tumour)?
Its T/C is 55 % of control.

O=C(/C(=C\c1ccccc1)CN1CCOCC1)c1ccc(Br)cc1 was tested. Which T/C (endpoint: median survival time, dose: 50.0 mg/kg/injection, schedule: Q01DX009 (ip), vehicle: saline, higher = longer survival) did it give?
Its T/C is 113 % of control.

What about the T/C (endpoint: median survival time, dose: 100.0 mg/kg/injection, schedule: Q01DX009 (ip), vehicle: saline, higher = longer survival) of the same molecule?
Its T/C is 105 % of control.

From PubChem BioAssay AID270 (DTP/NCI, 2004)
